These results are taken from patent EP3079693B1 (priority 2013, dated 2015).

The subject of data set [1] is influenza A/Puerto Rico/8/34 (H1N1) virus. Type of data set: cell-based.
Data set [2] concerns liver-derived HepG2 cells.
The subject of data set [3] is primary renal proximal tubule epithelial cells (or RPTEC).
Data set [4] has as its system H3N2 serotype A/Aichi/2/68. Type of data set: cell-based, influenza A.
The test system of data set [5] is influenza B. Kind of data set: Inhibition of influenza B (method not described).
For data set [6], the system named is influenza A. Type of data set: cell-based.
The subject of data set [7] is influenza A/Puerto Rico/8/34. Kind of data set: In vivo survival study after live infection. Set-up: species or system Balb/C mice. The note with it: 3 doses, 2xLD50 intranasal challenge, survival = 70% or more of starting weight. The procedure: In Vivo Survival Studies: Groups of 5 Balb/C mice ([…]) were weighed prior to the start of study and injected intravenously at the base of the tail with formulations containing A0435 at doses of 3.17, 1, or 0 mg/kg in phosphate buffered saline containing 3% w/v mouse serum albumin. Four hours later, these mice were challenged intranasally with 2xLD50 of influenza A/Puerto Rico/8/34 under anesthesia. Identical doses of A0435 were administered 24 and 48 hours after the initial dose administration and animal weights were monitored daily. Surviving animals were defined as those who maintained 70% or more of their starting weight.

For data set [8], the system named is constitutive gene expression. Kind of data set: Counter screen: separate reporter system with cell death-activated reporter construct (constitutive gene expression). The note with it: counter-screen assay, dose titration.
Data set [9] concerns the target influenza A RNA-dependent RNA polymerase (Influenza A virus, UniProt P03428+P03431+P03433). The data set is described as follows: cell-based.
For data set [10], the system named is influenza A/WS/1933 (H1N1). It counts as cell-based.

Molecules are shown by their SMILES.

For the compound `CCc1c(C)nc2cc(-c3ccc(OC)c(OC)c3)nn2c1NCCc1ccccn1` [A0435, 2-(3,4-dimethoxyphenyl)-6-ethyl-5-methyl-N-[2(pyridin-2-yl)ethyl]pyrazolo[1,5-a]pyrimidin-7-amine], in data set [1], the “concentrations with significant antiviral activity” value is greater than 4 µM. Besides, the “tolerability in cellular model of toxicity” value in data set [2] and in data set [3] was “well-tolerated” each time. The inhibition of virus result in data set [4] and in data set [10] was “significantly inhibited” each time. For the same compound, the “inhibition of influenza B” value in data set [5] is recorded as “inhibitable”. Moreover, in data set [6], the “cytopathic effects characteristic of influenza A infection” value is reported as “little to no signs of the cytopathic effects”. Besides, the “animals survived infection at day 7 post-infection” value in [7] (1 mg/kg intravenously) is recorded as 2/5; in data set [7] (3.17 mg/kg intravenously) it was 3/5. In addition, the “inhibitory impact on the level of constitutive gene expression” value in data set [8] was “no visible inhibitory impact”. In data set [9], this compound displayed an IC50 of roughly 3 µM.
